Results: ChEMBL document CHEMBL1151757, “Synthesis, radiosynthesis, and biological evaluation of fluorine-18-labeled 2beta-carbo(fluoroalkoxy)-3beta-(3'-((Z)-2-haloethenyl)phenyl)nortropanes: candidate radioligands for in vivo imaging of the serotonin transporter with positron emission tomography” (J Med Chem, 2008)

test system: Pons; experiment: Drug uptake in anesthetized cynomolgus monkey brain pons after 0.5 mins postinjection; type: ADME, organism-based, Macaca fascicularis; conditions: in vivo

Row | SMILES | Drug uptake
1 | O=C(OCC[18F])C1C2CCC(CC1c1ccc(/C=C\I)cc1)N2 (stereo not drawn) | 0

test system: Thalamus; experiment: Drug uptake in anesthetized cynomolgus monkey brain thalamus after 125 mins postinjection; type: ADME, organism-based, Macaca fascicularis; design: unit not given here; conditions: in vivo

Row | SMILES | Drug uptake
2 | O=C(OCC[18F])C1C2CCC(CC1c1ccc(/C=C\I)cc1)N2 (stereo not drawn) | 4.04

test system: not listed separately; experiment: Ratio of drug uptake in medulla to cerebellum in anesthetized cynomolgus monkey after 1.5 mins postinjection; type: ADME, organism-based, Macaca fascicularis; conditions: in vivo, 0.025 h

Row | SMILES | Ratio
3 | O=C(OCC[18F])C1C2CCC(CC1c1ccc(/C=C\I)cc1)N2 (stereo not drawn) | 1.4

test system: Caudate; experiment: Drug uptake in anesthetized cynomolgus monkey brain caudate after 225 mins postinjection; type: ADME, organism-based, Macaca fascicularis, Caudate nucleus; conditions: in vivo, 3.75 h

Row | SMILES | Drug uptake
4 | O=C(OCC[18F])C1C2CCC(CC1c1ccc(/C=C\I)cc1)N2 (stereo not drawn) | 2.68

test system: Caudate; experiment: Drug uptake in anesthetized cynomolgus monkey brain caudate after 75 mins postinjection; type: ADME, organism-based, Macaca fascicularis, Caudate nucleus; conditions: in vivo, 1.25 h

Row | SMILES | Drug uptake
5 | O=C(OCC[18F])C1C2CCC(CC1c1ccc(/C=C\I)cc1)N2 (stereo not drawn) | 2.98

test system: not listed separately; experiment: Ratio of drug uptake in pons to cerebellum in anesthetized cynomolgus monkey after 175 mins postinjection; type: ADME, organism-based, Macaca fascicularis; conditions: in vivo

Row | SMILES | Ratio
6 | O=C(OCC[18F])C1C2CCC(CC1c1ccc(/C=C\I)cc1)N2 (stereo not drawn) | 2.7

test system: not listed separately; experiment: Drug uptake in anesthetized cynomolgus monkey brain occipital lobe after 35 mins postinjection; type: ADME, organism-based, Macaca fascicularis; conditions: in vivo

Row | SMILES | Drug uptake
7 | O=C(OCC[18F])C1C2CCC(CC1c1ccc(/C=C\I)cc1)N2 (stereo not drawn) | 2.13

test system: Caudate; experiment: Drug uptake in anesthetized cynomolgus monkey brain caudate after 45 mins postinjection; type: ADME, organism-based, Macaca fascicularis, Caudate nucleus; conditions: in vivo, 0.75 h

Row | SMILES | Drug uptake
8 | O=C(OCC[18F])C1C2CCC(CC1c1ccc(/C=C\I)cc1)N2 (stereo not drawn) | 2.58

test system: not listed separately; experiment: Ratio of drug uptake in midbrain to cerebellum in anesthetized cynomolgus monkey after 135 mins postinjection; type: ADME, organism-based, Macaca fascicularis; conditions: in vivo, 2.25 h

Row | SMILES | Ratio
9 | O=C(OCC[18F])C1C2CCC(CC1c1ccc(/C=C\I)cc1)N2 (stereo not drawn) | 2.8

test system: not listed separately; experiment: Ratio of drug uptake in putamen to cerebellum in anesthetized cynomolgus monkey after 75 mins postinjection; type: ADME, organism-based, Macaca fascicularis; conditions: in vivo, 1.25 h

Row | SMILES | Ratio
10 | O=C(OCC[18F])C1C2CCC(CC1c1ccc(/C=C\I)cc1)N2 (stereo not drawn) | 1.8

test system: Pons; experiment: Drug uptake in anesthetized cynomolgus monkey brain pons after 65 mins postinjection; type: ADME, organism-based, Macaca fascicularis; conditions: in vivo

Row | SMILES | Drug uptake
11 | O=C(OCC[18F])C1C2CCC(CC1c1ccc(/C=C\I)cc1)N2 (stereo not drawn) | 3.35

test system: Midbrain; experiment: Drug uptake in anesthetized cynomolgus monkey brain midbrain after 65 mins postinjection; type: ADME, organism-based, Macaca fascicularis; design: unit not given here; conditions: in vivo

Row | SMILES | Drug uptake
12 | O=C(OCC[18F])C1C2CCC(CC1c1ccc(/C=C\I)cc1)N2 (stereo not drawn) | 4.13

test system: Medulla; experiment: Drug uptake in anesthetized cynomolgus monkey brain medulla after 185 mins postinjection; type: ADME, organism-based, Macaca fascicularis; conditions: in vivo

Row | SMILES | Drug uptake
13 | O=C(OCC[18F])C1C2CCC(CC1c1ccc(/C=C\I)cc1)N2 (stereo not drawn) | 3.41

test system: Midbrain; experiment: Drug uptake in anesthetized cynomolgus monkey brain midbrain after 235 mins postinjection; type: ADME, organism-based, Macaca fascicularis; conditions: in vivo

Row | SMILES | Drug uptake
14 | O=C(OCC[18F])C1C2CCC(CC1c1ccc(/C=C\I)cc1)N2 (stereo not drawn) | 4.44

test system: Putamen; experiment: Drug uptake in anesthetized cynomolgus monkey brain putamen after 9.5 mins postinjection; type: ADME, organism-based, Macaca fascicularis; design: unit not given here; conditions: in vivo

Row | SMILES | Drug uptake
15 | O=C(OCC[18F])C1C2CCC(CC1c1ccc(/C=C\I)cc1)N2 (stereo not drawn) | 2.38

test system: Pons; experiment: Drug uptake in anesthetized cynomolgus monkey brain pons after 85 mins postinjection; type: ADME, organism-based, Macaca fascicularis; conditions: in vivo

Row | SMILES | Drug uptake
16 | O=C(OCC[18F])C1C2CCC(CC1c1ccc(/C=C\I)cc1)N2 (stereo not drawn) | 3.38

test system: Thalamus; experiment: Drug uptake in anesthetized cynomolgus monkey brain thalamus after 145 mins postinjection; type: ADME, organism-based, Macaca fascicularis; design: unit not given here; conditions: in vivo

Row | SMILES | Drug uptake
17 | O=C(OCC[18F])C1C2CCC(CC1c1ccc(/C=C\I)cc1)N2 (stereo not drawn) | 3.98

test system: not listed separately; experiment: Ratio of drug uptake in midbrain to cerebellum in anesthetized cynomolgus monkey after 185 mins postinjection; type: ADME, organism-based, Macaca fascicularis; conditions: in vivo

Row | SMILES | Ratio
18 | O=C(OCC[18F])C1C2CCC(CC1c1ccc(/C=C\I)cc1)N2 (stereo not drawn) | 3.5

test system: Thalamus; experiment: Drug uptake in anesthetized cynomolgus monkey brain thalamus after 195 mins postinjection; type: ADME, organism-based, Macaca fascicularis; conditions: in vivo, 3.25 h

Row | SMILES | Drug uptake
19 | O=C(OCC[18F])C1C2CCC(CC1c1ccc(/C=C\I)cc1)N2 (stereo not drawn) | 3.67

test system: Midbrain; experiment: Drug uptake in anesthetized cynomolgus monkey brain midbrain after 135 mins postinjection; type: ADME, organism-based, Macaca fascicularis; conditions: in vivo, 2.25 h

Row | SMILES | Drug uptake
20 | O=C(OCC[18F])C1C2CCC(CC1c1ccc(/C=C\I)cc1)N2 (stereo not drawn) | 4.7

test system: Putamen; experiment: Drug uptake in anesthetized cynomolgus monkey brain putamen after 27.5 mins postinjection; type: ADME, organism-based, Macaca fascicularis; design: unit not given here; conditions: in vivo

Row | SMILES | Drug uptake
21 | O=C(OCC[18F])C1C2CCC(CC1c1ccc(/C=C\I)cc1)N2 (stereo not drawn) | 3.38

test system: not listed separately; experiment: Ratio of drug uptake in pons to cerebellum in anesthetized cynomolgus monkey after 105 mins postinjection; type: ADME, organism-based, Macaca fascicularis; conditions: in vivo, 1.75 h

Row | SMILES | Ratio
22 | O=C(OCC[18F])C1C2CCC(CC1c1ccc(/C=C\I)cc1)N2 (stereo not drawn) | 1.8

test system: Putamen; experiment: Drug uptake in anesthetized cynomolgus monkey brain putamen after 165 mins postinjection; type: ADME, organism-based, Macaca fascicularis; conditions: in vivo, 2.75 h

Row | SMILES | Drug uptake
23 | O=C(OCC[18F])C1C2CCC(CC1c1ccc(/C=C\I)cc1)N2 (stereo not drawn) | 4.22
